Laboratory results from US20050153937A1, “Desensitization of compliment activation using monocyte/macrophage inhibitory compounds” (priority 2003, published 2005).

Test system: complement activation-related acute hypersensitivity (CARPA)
Settings: pig, in vivo
Text: Adolescent (2040 kg) Yorkshire pigs of both genders are sedated with i.m. ketamine (Ketalar) and then anesthetized with halothane or isoflurane via nose cone. The trachea is intubated to allow mechanical ventilation with an anesthesia machine, using 1-2.5% halothane or isoflurane. A pulmonary artery catheter equipped with thermodilution-based continuous cardiac output detector is advanced via the right internal jugular vein through the right atrium into the pulmonary artery to measure pulmonary arterial pressure (PAP) and cardiac output (CO). Another catheter is inserted into the right femoral artery and advanced into the proximal aorta for blood sampling and to measure systemic arterial pressure (SAP). Blood pressure values and 2-3 leads of the electrocardiogram (ECG) are obtained continually.
The CARPA-activating compounds used in the following experiments are i) Doxil containing 2 mg/ml doxorubicin HCl and 16 mg/ml lipid (phospholipid concentration: 13.3 mM, 150 μg doxorubicin/μmol phospholipid), ii) multilamellar vesicles (MLV) consisting of dimyristoyl phosphatidylcholine (DMPC), dimyristoyl phosphatidylglycerol (DMPG), and cholesterol at a 45:5:50 ratio, and iii) zymosan. […]

For Zymosan, the “reactions to second series of CARPA-activator injections compared with first administration” value was “substantially identical” and the “time until all physiologic and blood measures return to baseline after injection” value (iv) was ≤ 30 min.
